Measured values as given in article PMC3548707, “Biocatalytic potential of laccase-like multicopper oxidases from Aspergillus niger” (Microbial Cell Factories, 2012).
Read-outs that look alike come from different tables or passages of the source.

Assays:
McoG [1] = settings: read-out: ABTS; pH 5.0; 0.125 to 15 mM substrate
McoB [2] = settings: read-out: ABTS; pH 5.0; 0.125 to 15 mM substrate
McoG [3] = molecular target: T1, McoG; assay: initial oxidation rate at […] nm, Michaelis-Menten fit; assay type: biochemical, Aspergillus niger; settings: substrate inhibition; second site; pH 5.0
T1 construct: secreted, homologously expressed in A. niger N593, purified from culture supernatant; theoretical ~65 kDa, ~80 kDa SDS-PAGE, ~99 kDa gel filtration; monomer; blue

McoB [4] = tested on: T2, McoB; assay: as above; assay type: biochemical, Aspergillus niger; settings: pH 5.0; 0.125 to 15 mM substrate; fit with substrate inhibition; read-out: DMPPDA
T2 construct: secreted, homologously expressed in A. niger N593, purified from culture supernatant; theoretical ~63 kDa, ~88 kDa SDS-PAGE, ~96 kDa gel filtration; monomer; yellow

McoA = tested on: T3, McoA; assay: as above; assay type: biochemical, Aspergillus niger; settings: pH 5.0; 0.125 to 15 mM substrate; read-out: DMPPDA
T3 construct: secreted, homologously expressed in A. niger N593, purified from culture supernatant; theoretical ~64 kDa, ~110 kDa SDS-PAGE, ~120 kDa gel filtration; monomer; blue

McoG [5] = tested on: T1, McoG; assay: as above; assay type: biochemical, Aspergillus niger; settings: pH 5.0; 0.125 to 15 mM substrate; fit with substrate inhibition; read-out: DMPPDA
McoB [6] = molecular target: T2, McoB; assay: as above; assay type: biochemical, Aspergillus niger; settings: substrate inhibition; second site; pH 5.0

Row | SMILES | Km (McoG [1]) [µM] | Km (McoB [2]) [µM] | Ki (McoG [3]) [mM] | Km (McoB [4]) [µM] | Km (McoA) [µM] | Km (McoG [5]) [µM] | Ki (McoB [6]) [mM]
1 | CCn1c(=NN=c2sc3cc(S(=O)(=O)O)ccc3n2CC)sc2cc(S(=O)(=O)O)ccc21 [ABTS] | 5600 ± 1000 | 500 ± 100 |  |  |  |  | 
2 | CN(C)c1ccc(N)cc1 [DMPPDA] |  |  | 4.6 ± 0.7 | 400 ± 100 | 3600 ± 200 | 1800 ± 300 | 22.4 ± 6.4
